These results are taken from ChEMBL document CHEMBL4145614, “Cyclopeptides from the Sponge Stylissa flabelliformis” (J Nat Prod, 2018).

As a reminder, the IC50 is the concentration that gives 50% inhibition. By MIC is commonly meant the smallest concentration in the dilution series that meets the test's criterion for growth inhibition.

For one experiment, the system named is HCT-116. The experiment is described as follows: Cytotoxicity against human HCT116 cells after 72 hrs by sulforhodamine B assay. It counts as functional, cell-based.
A further experiment relates to K562. The experiment is described as follows: Cytotoxicity against human K562 cells after 72 hrs by sulforhodamine B assay. It counts as functional, cell-based. Background: Sulforhodamine B stains cellular protein and so reports cell mass.
The subject of a further experiment is MDA-MB-231. The experiment is described as follows: Cytotoxicity against human MDA-MB-231 cells after 72 hrs by sulforhodamine B assay. It counts as functional, cell-based. Conditions: Homo sapiens, MDA-MB-231, 72 h.
For another experiment, the system named is SK-HEP1. The experiment is described as follows: Cytotoxicity against human SKHEP1 cells after 72 hrs by sulforhodamine B assay. It counts as functional, cell-based.
In a further experiment the test system is SNU-638. The experiment is described as follows: Cytotoxicity against human SNU638 cells after 72 hrs by sulforhodamine B assay. It counts as functional, cell-based.
Experiment [1] has as its target Sodium/potassium-transporting ATPase. The experiment is described as follows: Inhibition of potassium-activated sodium/potassium ATPase in human placenta using 3-O-methylfluorescein phosphate as substrate measured for 90 secs by fluorescence assay.
The nature of experiment [2]: Inhibition of recombinant bacterial sortase A using Dabcyl-QALPETGEE-Edans as substrate measured after 1 hr by fluorescence assay. The arrangement: species or system Bacteria.
The test system of the next experiment is Staphylococcus aureus. The experiment is described as follows: Antibacterial activity against Staphylococcus aureus ATCC 6538P measured after 24 hrs. It is filed as functional.
The test system of the next experiment is Bacillus spizizenii. The experiment is described as follows: Antibacterial activity against Bacillus subtilis ATCC 6633 measured after 24 hrs. It counts as functional. Conditions: ATCC 6633, 24 h.
Another experiment relates to Micrococcus luteus. The experiment is described as follows: Antibacterial activity against Micrococcus luteus IFC 12708 measured after 24 hrs. It counts as functional. Conditions: IFC 12708, 24 h.
Another experiment has as its system Proteus vulgaris. The experiment is described as follows: Antibacterial activity against Proteus vulgaris ATCC 3851 measured after 24 hrs. Conditions: ATCC 3851, 24 h. It counts as functional.
Another experiment relates to Salmonella typhimurium. The experiment is described as follows: Antibacterial activity against Salmonella typhimurium ATCC 14028 measured after 24 hrs. It is filed as functional, Salmonella enterica subsp. enterica serovar Typhimurium. Conditions: Salmonella enterica, ATCC 14028, 24 h.
The subject of another experiment is Escherichia coli. The experiment is described as follows: Antibacterial activity against Escherichia coli ATCC 25922 measured after 24 hrs. It is filed as functional. Conditions: ATCC 25922, 24 h.
In the next experiment the test system is Candida albicans. The experiment is described as follows: Antifungal activity against Candida albicans ATCC 10231 measured after 48 to 72 hrs. It counts as functional.
A further experiment relates to Aspergillus fumigatus. The experiment is described as follows: Antifungal activity against Aspergillus fumigatus HIC 6094 measured after 48 to 72 hrs. It is filed as functional.
Another experiment relates to Trichophyton rubrum. The experiment is described as follows: Antifungal activity against Trichophyton rubrum IFO 9185 measured after 48 to 72 hrs. It counts as functional.
For experiment [3], the system named is Trichophyton mentagrophytes. The experiment is described as follows: Antifungal activity against Trichophyton mentagrophytes IFO 40996 measured after 48 to 72 hrs. It is filed as functional.
Experiment [4] relates to A549. The experiment is described as follows: cells. Conditions: Homo sapiens, A549, 72 h.
Description: (§1) Cytotoxicity against human A549 cells after 72 hrs by sulforhodamine B assay
The test system of experiment [5] is A549.
Description: as §1

Where a SMILES comes first, the peptide text is derived from it.

On to `CC[C@H](C)[C@@H]1NC(=O)[C@@H]2CCCN2C(=O)[C@@H]2CCCN2C(=O)[C@H](C(C)C)NC(=O)[C@H](Cc2ccc(O)cc2)NC(=O)[C@@H]2CCCN2C(=O)[C@@H]2CCCN2C(=O)[C@H](CC(C)C)NC(=O)[C@H](C(C)C)NC(=O)[C@H](Cc2ccccc2)NC1=O` (HELM PEPTIDE1{F.V.L.P.P.Y.V.P.P.I}$PEPTIDE1,PEPTIDE1,1:R1-10:R2$$$V2.0), for which the IC50 in the experiment on HCT-116 (Homo sapiens, HCT-116, 72 h) is 1 µM; in the experiment with K562 (Homo sapiens, K562, 72 h), 1.1 µM; in the experiment on MDA-MB-231, 8.6 µM; in the experiment with SK-HEP1 (Homo sapiens, SK-HEP1, 72 h), 12 µM; in the experiment on SNU-638 (Homo sapiens, SNU-638, 72 h) it was 2.2 µM; in experiment [1], over 100 µM. Further, the IC50 in [2] is over 100 µM; with A549 [4], 1.4 µM. In addition, the MIC against Staphylococcus aureus, in the experiment on Bacillus spizizenii, with Micrococcus luteus, in the experiment with Proteus vulgaris, with Salmonella typhimurium and with Escherichia coli was over 128 µM throughout. Moreover, the MIC (with Candida albicans; against Aspergillus fumigatus; against Trichophyton rubrum; in experiment [3]) was over 128 µM throughout.
Take `CC[C@H](C)[C@@H]1NC(=O)[C@H](C)NC(=O)[C@H](CC[S+](C)[O-])NC(=O)[C@H](C)NC(=O)[C@H](CC(N)=O)NC(=O)[C@H](Cc2ccccc2)NC(=O)[C@@H]2CCCN2C1=O` (stereo not given in full) (HELM PEPTIDE1{A.I.P.F.N.A.[CS(=O)CC[C@H](N[*:1])C(=O)[*:2]]}$PEPTIDE1,PEPTIDE1,1:R1-7:R2$$$V2.0): the IC50 in the experiment on HCT-116 (Homo sapiens, HCT-116, 72 h) is 12 µM; in the experiment with K562 (Homo sapiens, K562, 72 h), 11 µM; in the experiment on MDA-MB-231, 12 µM; in the experiment with SK-HEP1 (Homo sapiens, SK-HEP1, 72 h), 13 µM; in the experiment on SNU-638 (Homo sapiens, SNU-638, 72 h), 12 µM; in experiment [1], over 100 µM. In addition, the concentration for half-maximal inhibition (IC50) in experiment [2] is over 100 µM; in the experiment on A549 [4] it was 15 µM. For the same compound, the MIC with Staphylococcus aureus, against Bacillus spizizenii, in the experiment on Micrococcus luteus, with Proteus vulgaris, against Salmonella typhimurium and with Escherichia coli was over 128 µM throughout. The minimal inhibitory concentration (MIC) (with Candida albicans; with Aspergillus fumigatus; in the experiment with Trichophyton rubrum; in experiment [3]) was over 128 µM in each case.
As for `CC(C)C[C@@H]1NC(=O)[C@H](CO)NC(=O)[C@@H]2CCCN2C(=O)[C@H](Cc2ccc(O)cc2)NC(=O)[C@H](Cc2ccc(O)cc2)NC(=O)[C@@H]2CCCN2C(=O)[C@H](Cc2ccc(O)cc2)NC1=O` (HELM PEPTIDE1{L.Y.P.Y.Y.P.S}$PEPTIDE1,PEPTIDE1,1:R1-7:R2$$$V2.0), the IC50 is over 50 µM in the experiment with HCT-116 (Homo sapiens, HCT-116, 72 h); over 50 µM with K562 (Homo sapiens, K562, 72 h); over 50 µM in the experiment on MDA-MB-231; over 50 µM in the experiment on SK-HEP1 (Homo sapiens, SK-HEP1, 72 h); over 50 µM in the experiment with SNU-638 (Homo sapiens, SNU-638, 72 h); over 100 µM in experiment [1]. In addition, the values for the IC50 (in [2]; in the experiment on A549 [4]) were over 100 µM and over 50 µM, respectively. Moreover, the MIC against Staphylococcus aureus, against Bacillus spizizenii, in the experiment on Micrococcus luteus, in the experiment with Proteus vulgaris, in the experiment with Salmonella typhimurium and against Escherichia coli was over 128 µM throughout. Further, the minimum inhibitory concentration (MIC) (with Candida albicans; in the experiment on Aspergillus fumigatus; against Trichophyton rubrum; in experiment [3]) was over 128 µM in each case.
Turning to `CC[C@H](C)[C@@H]1NC(=O)[C@H](Cc2ccc(O)cc2)NC(=O)[C@@H]2CCCN2C(=O)[C@@H]2CCCN2C(=O)[C@H](CC(C)C)NC(=O)[C@H](CCC(=O)O)NC(=O)[C@H](Cc2ccccc2)NC(=O)[C@H](CC[S+](C)[O-])NC(=O)[C@@H]2CCCN2C(=O)[C@@H]2CCCN2C1=O` (single isomer, unassigned; epimer 2), the concentration for half-maximal inhibition (IC50) was found to be 0.011 µM with HCT-116 (hct-116); 0.021 µM with K562 (k562); 0.35 µM with MDA-MB-231; 0.014 µM in the experiment with SK-HEP1 (sk-hep1); 0.01 µM in the experiment with SNU-638 (snu-638); 0.023 µM with A549 [5].
